Paper PMC9886266, “New [1,2,4]triazolo[4,3-c]quinazolines as intercalative Topo II inhibitors: Design, synthesis, biological evaluation, and in silico studies” (PLOS ONE, 2023)

Columns and labels:
HepG2 cell line = experiment: MTT anti-proliferative assay, HepG2; type: cell-based; conditions: Homo sapiens, 48 h, three independent experiments, read-out: In vitro cytotoxicity IC50, HepG2
Procedure: In vitro antiproliferative activities of the target molecules were assessed against two human cancer cell lines namely, hepatocellular carcinoma (HepG2) and colorectal carcinoma (HCT-116) using MTT assay.
The anti-proliferative activity of the synthesized compounds was assessed using MTT assay protocol. A panel of human cancer cell lines namely, colorectal carcinoma (HCT-116) and hepatocellular carcinoma (HepG2) was used in this test. Doxorubicin was used as a positive control. The cell lines were got from ATCC (American Type Culture Collection) via the Holding company for biological products and vaccines (VACSERA, Cairo, Egypt). The anti-proliferative activities of the tested compounds were determined quantitatively as follows:
At first, the cells were cultured into a medium of RPMI-1640 with 10% fetal bovine serum. Then, two different antibiotics were added at 37°C in a 5% CO2 incubator: penicillin (100 units/mL) and streptomycin (100 μg/mL). Next, we seeded the cells in a 96-well plate by a density of 1.0 x 10^4 cells / well at 37°C for 48 h under 5% CO2. The synthesized compounds with different concentrations were applied into the cell lines and incubated for 48 h. After 48 h, 20 μl of MTT solution (5mg/mL) was added and incubated for 4 h. Then, DMSO (100 μl) was added into each well to dissolve the formed purple formazan. After that, a colorimetric assay was measured and recorded at absorbance of 570 nm using a plate reader (EXL 800, USA). The relative cell viability in percentage was calculated as (A570 of treated samples/A570 of untreated sample) X 100.
S2: Biological evaluation
S2.1. In vitro cytotoxic activity
The anti-proliferative activity of the synthesized compounds was assessed using MTT assay protocol. A panel of human cancer cell lines namely, colorectal carcinoma (HCT-116) and hepatocellular carcinoma (HepG2) was used in this test. As we targeted the DNA and Topo […]
cell lines were got from ATCC (American Type Culture Collection) via the Holding company for biological products and vaccines (VACSERA, Cairo, Egypt). The anti -proliferative activities of the tested compounds were determined quantitatively as follows:
At first, the cells were cultured into a medium of RPMI-1640 with 10% fetal bovine serum.
Then, two different antibiotics were added at 37 ᵒC in a 5% CO2 incubator: penicillin (100 units/mL) and streptomycin (100 µg/mL). Next, we seeded the cells in a 96 -well plate by a density of 1.0 x 10^4 cells / well at 37 ᵒC for 48 h under 5% CO2. The synthesized compounds with different concentrations were applied into the cell lines and incubated for 48 h. After 48 h, 20 µl of MTT solution (5mg/mL) was added and incubated for 4 h. Then, DMSO (100 µl) was added into each well to dissolve the formed purple formazan. After that, a colorimetric assay was measured and recorded at absorbance of 570 nm using a plate reader (EXL 800, USA). The relative cell viability in percentage was calculated as (A570 of treated samples/A570 of untreated sample) X 100. […]

BAX/Bcl-2 ratio = experiment: Western blot, BAX/Bcl-2 ratio; type: cell-based, human; conditions: HCT-116, 2.44 μM, 48 h; control = 1.00
Procedure: In comparison to the control, compound 16 elevated the level of the proapoptotic protein (BAX) by 2.18 times. […] Furthermore, compound 16 enhanced the BAX/Bcl-2 ratio by 4.38-fold in comparison to control cells.
The effects of compound 16 on the expression of BAX, and Bcl‐2 were determined using Western blot analysis [62–64]as described in Electronic Supplementary Material S2.7 in S1 Appendix. […]
for 48 h. Then, the cells were fixed in 70% ethanol at 4 °C for 12 h. After that, the cells were washed with cold PBS, incubated with 100 μl RNase A at 37 °C for 30 min, and stained with 400 μl PI in the dark at room temperature for further 30 min. The stained cells were measured using Epics XL-MCL™ Flow Cytometer (Beckman Coulter), and the data were analyzed using Flowing software (version 2.5.1, Turku Centre for Biotechnology, Turku, Finland).
S2.6. Flow cytometry analysis for apoptosis
Flow cytometry cell apoptosis analysis was used to investigate the apoptotic effect of the synthesized compounds. […] The stained cells were measured using Epics XL-MCL™ Flow Cytometer and analyzed using Flowing software. […]
The proteins expression of BAX, and Bcl‐2 were determined using Western blot analysis. […] Total protein concentrations in the supernatant were determined colorimetrically using the Pierce 660 nm Protein Assay method (Thermo Fisher Scientific, Rockford, IL), with BSA as the standard. […]

With `CCCNc1nc2ccccc2c2nnc(C(F)(F)F)n12` [Compound 16, N-Propyl-3-(trifluoromethyl)-[1,2,4]triazolo[4,3-c]quinazolin-5-amine] the IC50 (HepG2 cell line) was 6.29 ± 0.3 µM and the “Protein expression (normalized to β-actin) BAX/Bcl-2 ratio” value (BAX/Bcl-2 ratio) was 4.38 ± 0.86.
